# According to patent US8415342B2, “Besifloxacin ophthalmic composition for the treatment or control of infection” (Bausch & Lomb Incorporated, priority 2008, dated 2013):
# Read-outs that look alike come from different tables or passages of the source.
# How the values were obtained:
# Type in all cases: cell-based
# [1] = test system: Staphylococcus warneri; experiment: MIC, CLSI broth microdilution, clinical isolates; conditions: Staphylococcus warneri (N = 50)
# [2] = test system: Staphylococcus epidermidis; experiment: MIC, CLSI broth microdilution, clinical isolates; conditions: for MIC50: Staphylococcus epidermidis
# [3] = test system: Viridans streptococci; experiment: MIC, CLSI broth microdilution, clinical isolates; conditions: Viridans streptococci (N = 156)
# [4] = test system: Citrobacter koseri; experiment: MIC, CLSI broth microdilution, clinical isolates; conditions: Citrobacter koseri (N = 100)
# [5] = test system: Streptococcus pyogenes; experiment: MIC, CLSI broth microdilution, clinical isolates; conditions: Streptococcus pyogenes (N = 101)
# [6] = test system: Morganella morganii; experiment: MIC, CLSI broth microdilution, clinical isolates; conditions: Morganella morganii (N = 51)
# [7] = test system: Legionella pneumophila; experiment: microbe, parasite or virus in culture
# [8] = test system: Streptococcus pneumoniae; experiment: MIC, CLSI broth microdilution, clinical isolates
# [9] = test system: Haemophilus influenzae; experiment: MIC, CLSI broth microdilution, clinical isolates; conditions: for MIC50 / MIC90: Haemophilus influenzae
# [10] = test system: Staphylococcus haemolyticus; experiment: MIC, CLSI broth microdilution, clinical isolates; conditions: Staphylococcus haemolyticus (N = 101)
# [11] = test system: Staphylococcus aureus; experiment: MIC, CLSI broth microdilution, clinical isolates; conditions: for MIC50 / MIC90: Staphylococcus aureus
# [12] = test system: Staphylococcus hominis; experiment: MIC, CLSI broth microdilution, clinical isolates; conditions: Staphylococcus hominis (N = 50)
# [13] = test system: Streptococcus agalactiae; experiment: MIC, CLSI broth microdilution, clinical isolates; conditions: Streptococcus agalactiae (N = 100)
# [14] = test system: Moraxella catarrhalis; experiment: MIC, CLSI broth microdilution, clinical isolates; conditions: Moraxella catarrhalis (N = 101)
# [15] = test system: Staphylococcus saprophyticus; experiment: MIC, CLSI broth microdilution, clinical isolates; conditions: Staphylococcus saprophyticus (N = 101)
# [16] = test system: Klebsiella oxytoca; experiment: MIC, CLSI broth microdilution, clinical isolates; conditions: Klebsiella oxytoca (N = 50)
# [17] = test system: Lancefield group C, F, G streptococci; experiment: MIC, CLSI broth microdilution, clinical isolates; conditions: G streptococci (N = 50)
# [18] = test system: Staphylococcus lugdunensis; experiment: MIC, CLSI broth microdilution, clinical isolates; conditions: Staphylococcus lugdunensis (N = 15)
# [19] = Staphylococcus epidermidis (CNS, N = 6)
# [20] = Staphylococcus epidermidis (CS, N = 9)
# [21] = Staphylococcus epidermidis (MSSE, N = 6)
# [22] = Staphylococcus epidermidis (all phenotypes, N = 15)
# [23] = Streptococcus pneumoniae (PISP, N = 2)
# [24] = Streptococcus pneumoniae (PRSP, N = 2)
# [25] = Streptococcus pneumoniae (PSSP, N = 31)
# [26] = Streptococcus pneumoniae (all phenotypes, N = 35)
# [27] = Haemophilus influenzae (all phenotypes, N = 40)
# [28] = Haemophilus influenzae (bla negative, N = 24)
# [29] = Haemophilus influenzae (bla positive, N = 16)
# [30] = Staphylococcus aureus (CNS, N = 16)
# [31] = Staphylococcus aureus (CS, N = 14)
# [32] = Staphylococcus aureus (all phenotypes, N = 30)
# [33] = MRSA, Staphylococcus aureus (MRSA, N = 11)
# [34] = MSSA, Staphylococcus aureus (MSSA, N = 19)
smiles,measurement,setting,value
C[C@H]1COc2c(N3CCN(C)CC3)c(F)cc3c(=O)c(C(=O)O)cn1c23 [Levofloxacin],% S,[1],76.0%
same,MIC50,[1],0.12 µg/mL
same,MIC90,[1],> 8 µg/mL
same,% S,[2]; [19],0.0%
same,% S,[2]; [20],100.0%
same,MIC Range,[2]; [20],0.12-0.12 μg/mL
same,% S,"[2]; Staphylococcus epidermidis (MRSE, N = 9)",44.4%
same,% S,[2]; [21],83.3%
same,MIC Range,[2]; [21],0.12 to 8 µg/mL
same,% S,[2]; [22],60.0%
same,MIC90,[2]; [22],> 8 µg/mL
same,MIC50,"[2]; MRSE, Staphylococcus epidermidis (MRSE, N = 9)",2 µg/mL
same,MIC50,[2]; [19],8 µg/mL
same,MIC50,[2]; [20],0.12 µg/mL
same,MIC50,[2]; [21],0.12 µg/mL
same,MIC50,[2]; [22],0.12 µg/mL
same,% S,[3],95.5%
same,MIC50,[3]; read-out: MIC50,1 µg/mL
same,MIC90,[3]; read-out: MIC90,1 µg/mL
same,% S,[4],99.0%
same,MIC50,[4],0.03 µg/mL
same,MIC90,[4],0.12 µg/mL
same,% S,[5],100.0%
same,MIC Range,[5],0.25 to 2 µg/mL
same,MIC50,[5]; read-out: MIC50,0.5 µg/mL
same,MIC90,[5]; read-out: MIC90,0.5 µg/mL
same,% S,[6],76.5%
same,MIC50,[6],0.06 µg/mL
same,MIC90,[6],8 µg/mL
same,MIC50,[7]; Legionella pneumophila,0.03 µg/mL
same,MIC90,[7]; Legionella pneumophila,0.03 µg/mL
same,MIC Range,[7]; Legionella pneumophila (N = 50),0.015 to 0.06 µg/mL
same,% S,[8]; [23],100.0%
same,MIC Range,[8]; [23],0.5 to 1 µg/mL
same,% S,[8]; [24],100.0%
same,MIC Range,[8]; [24],0.5 to 1 µg/mL
same,% S,[8]; [25],96.8%
same,MIC50,[8]; [25],0.5 µg/mL
same,MIC90,[8]; [25],1 µg/mL
same,MIC Range,[8]; [25],0.5 to 8 µg/mL
same,% S,[8]; [26],97.1%
same,MIC Range,[8]; [26],0.5 to 8 µg/mL
same,MIC50,"[8]; Streptococcus pneumoniae (all phenotypes, N = 35), read-out: MIC50",0.5 µg/mL
same,MIC90,"[8]; Streptococcus pneumoniae (all phenotypes, N = 35), read-out: MIC90",1 µg/mL
same,% S,[9]; [27],100.0%
same,MIC Range,[9]; [27],0.008 to 0.015 µg/mL
same,% S,[9]; [28],100.0%
same,MIC Range,[9]; [28],0.008 to 0.015 µg/mL
same,% S,[9]; [29],100.0%
same,MIC Range,[9]; [29],0.015-0.015 μg/mL
same,MIC50,[9]; [27],0.015 µg/mL
same,MIC90,[9]; [27],0.015 µg/mL
same,MIC50,[9]; [28],0.015 µg/mL
same,MIC90,[9]; [28],0.015 µg/mL
same,MIC50,[9]; [29],0.015 µg/mL
same,MIC90,[9]; [29],0.015 µg/mL
same,% S,[10],39.6%
same,MIC50,[10],4 µg/mL
same,MIC90,[10],> 8 µg/mL
same,% S,[11]; [30],12.5%
same,% S,[11]; [31],92.9%
same,MIC Range,[11]; [31],0.06 to 2 µg/mL
same,% S,"[11]; Staphylococcus aureus (MRSA, N = 11)",18.2%
same,% S,"[11]; Staphylococcus aureus (MSSA, N = 19)",68.4%
same,% S,[11]; [32],50.0%
same,MIC50,[11]; [33],4 µg/mL
same,MIC90,[11]; [33],> 8 µg/mL
same,MIC50,[11]; [34],0.25 µg/mL
same,MIC90,[11]; [34],4 µg/mL
same,MIC50,[11]; [30],4 µg/mL
same,MIC90,[11]; [30],> 8 µg/mL
same,MIC50,[11]; [31],0.12 µg/mL
same,MIC90,[11]; [31],0.25 µg/mL
same,MIC50,[11]; [32],1 µg/mL
same,MIC90,[11]; [32],> 8 µg/mL
same,% S,[12],30.0%
same,MIC50,[12],8 µg/mL
same,MIC90,[12],> 8 µg/mL
same,% S,[13],98.0%
same,MIC Range,[13],0.25 to 4 µg/mL
same,MIC50,[13]; read-out: MIC50,0.5 µg/mL
same,MIC90,[13]; read-out: MIC90,1 µg/mL
same,% S,[14],100.0%
same,MIC50,[14],0.015 µg/mL
same,MIC90,[14],0.03 µg/mL
same,MIC Range,[14],0.015 to 0.5 µg/mL
same,% S,[15],100.0%
same,MIC50,[15],0.5 µg/mL
same,MIC90,[15],0.5 µg/mL
same,MIC Range,[15],0.06 to 0.5 µg/mL
same,% S,[16],90.0%
same,MIC50,[16],0.03 µg/mL
same,MIC90,[16],0.5 µg/mL
same,MIC Range,[16],0.015 to 8 µg/mL
same,% S,[17],98.0%
same,MIC Range,[17],0.12 to 8 µg/mL
same,MIC50,[17]; read-out: MIC50,0.5 µg/mL
same,MIC90,[17]; read-out: MIC90,0.5 µg/mL
same,% S,[18],66.7%
same,MIC50,[18],0.25 µg/mL
same,MIC90,[18],> 8 µg/mL
